Experimental data published in patent publication US10202361B2, “Pyridazinones as herbicides” (E I DU PONT DE NEMOURS AND COMPANY, priority 2014, dated 2019).

How the values were obtained:
Format in all cases: in vivo
rice (Oryza sativa) = assay: Test B flooded paddy test; settings: Flood, scale of 0 to 100, 0 is no effect, 100 is complete control, 13 to 15 d
Description: (§1) Plant species in the flooded paddy test selected from rice (Oryza sativa), small-flower sedge, umbrella (small-flower umbrella sedge, Cyperus difformis), ducksalad (Heteranthera limosa), and barnyardgrass (Echinochloa crus-galli) were grown to the 2-leaf stage for testing. At time of treatment, test pots were flooded to 3 cm above the soil surface, treated by application of test compounds directly to the paddy water, and then maintained at that water depth for the duration of the test. Treated plants and controls were maintained in a greenhouse for 13 to 15 d, after which time all species were compared to controls and visually evaluated. Plant response ratings, summarized in Table B, are based on a scale of 0 to 100 where 0 is no effect and 100 is complete control. A dash (-) response means no test result.

[1] = system: barnyardgrass (Echinochloa crus-galli); assay: Test B flooded paddy test; settings: Flood, scale of 0 to 100, 0 is no effect, 100 is complete control, 13 to 15 d
Description: as §1

[2] = system: ducksalad (Heteranthera limosa); assay: Test B flooded paddy test; settings: Flood, scale of 0 to 100, 0 is no effect, 100 is complete control, 13 to 15 d
Description: as §1

[3] = system: sedge, umbrella (small-flower umbrella sedge, Cyperus difformis); assay: Test B flooded paddy test; settings: Flood, scale of 0 to 100, 0 is no effect, 100 is complete control, 13 to 15 d
Description: as §1

[4] = system: pigweed (Amaranthus retroflexus); assay: Test A pre-/postemergence greenhouse herbicide test; settings: 0 to 100 scale (0 no effect, 100 complete control), approx. 10 d
Text: (§2) Seeds of plant species selected from barnyardgrass (Echinochloa crus-galli), crabgrass, Large (large crabgrass, Digitaria sanguinalis), foxtail, giant (giant foxtail, Setaria faberii), morningglory (Ipomoea spp.), pigweed (Amaranthus retroflexus), velvetleaf (Abutilon theophrasti), wheat (Triticum aestivum), and corn (Zea mays) were planted into a blend of loam soil and sand and treated preemergence with a directed soil spray using test chemicals formulated in a non-phytotoxic solvent mixture which included a surfactant. At the same time these species were also treated with postemergence applications of test chemicals formulated in the same manner.
(§3) Plants ranged in height from 2 to 10 cm and were in the one- to two-leaf stage for the postemergence treatment. Treated plants and untreated controls were maintained in a greenhouse for approximately 10 d, after which time all treated plants were compared to untreated controls and visually evaluated for injury. Plant response ratings, summarized in Table A, are based on a 0 to 100 scale where 0 is no effect and 100 is complete control. A dash (-) response means no test result.

[5] = system: crabgrass, Large (large crabgrass, Digitaria sanguinalis); assay: as above; settings: 0 to 100 scale (0 no effect, 100 complete control), approx. 10 d
Text: as §2, §3

[6] = system: morningglory (Ipomoea spp.); assay: as above; settings: 0 to 100 scale (0 no effect, 100 complete control), approx. 10 d
Text: as §2, §3

[7] = system: barnyardgrass (Echinochloa crus-galli); assay: as above; settings: 0 to 100 scale (0 no effect, 100 complete control), approx. 10 d
Text: as §2, §3

[8] = system: velvetleaf (Abutilon theophrasti); assay: as above; settings: 0 to 100 scale (0 no effect, 100 complete control), approx. 10 d
Text: as §2, §3

[9] = system: foxtail, giant (giant foxtail, Setaria faberii); assay: as above; settings: 0 to 100 scale (0 no effect, 100 complete control), approx. 10 d
Text: as §2, §3

corn (Zea mays) = assay: as above; settings: 0 to 100 scale (0 no effect, 100 complete control), approx. 10 d
Text: as §2, §3

[10] = system: wheat (Triticum aestivum); assay: as above; settings: 0 to 100 scale (0 no effect, 100 complete control), approx. 10 d
Text: as §2, §3

| Structure (SMILES) | Plant response rating, Pigweed ([4]; Postemergence, 125 g ai/ha) | Plant response rating, Pigweed ([4]; Postemergence, 500 g ai/ha) | Plant response rating, Pigweed ([4]; Preemergence, 125 g ai/ha) | Plant response rating, Pigweed ([4]; Preemergence, 500 g ai/ha) | Plant response rating, Crabgrass, Large ([5]; Postemergence, 125 g ai/ha) | Plant response rating, Crabgrass, Large ([5]; Postemergence, 500 g ai/ha) | Plant response rating, Crabgrass, Large ([5]; Preemergence, 125 g ai/ha) | Plant response rating, Crabgrass, Large ([5]; Preemergence, 500 g ai/ha) | Plant response rating, Morningglory ([6]; Postemergence, 125 g ai/ha) | Plant response rating, Morningglory ([6]; Postemergence, 500 g ai/ha) | Plant response rating, Morningglory ([6]; Preemergence, 125 g ai/ha) | Plant response rating, Morningglory ([6]; Preemergence, 500 g ai/ha) | Plant response rating, Barnyardgrass ([7]; Postemergence, 125 g ai/ha) | Plant response rating, Barnyardgrass ([7]; Postemergence, 500 g ai/ha) | Plant response rating, Barnyardgrass ([7]; Preemergence, 125 g ai/ha) | Plant response rating, Barnyardgrass ([7]; Preemergence, 500 g ai/ha) | Plant response rating, Velvetleaf ([8]; Postemergence, 125 g ai/ha) | Plant response rating, Velvetleaf ([8]; Postemergence, 500 g ai/ha) | Plant response rating, Velvetleaf ([8]; Preemergence, 125 g ai/ha) | Plant response rating, Velvetleaf ([8]; Preemergence, 500 g ai/ha) | further results |
| --- | --- | --- | --- | --- | --- | --- | --- | --- | --- | --- | --- | --- | --- | --- | --- | --- | --- | --- | --- | --- | --- |
| Cc1cc(=O)n(-c2ccc(F)cc2)nc1Cc1cccc(C(F)(F)F)c1 [Compound 8] | 90 | 100 | 90 | 100 | 40 | 90 | 90 | 100 | 80 | 80 | 0 | 0 | 20 | 50 | 20 | 80 | 20 | 80 | 0 | 0 | Plant response rating, Rice (rice (Oryza sativa); 250 g ai/ha): 25; Plant response rating, Barnyardgrass ([1]; 250 g ai/ha): 20; Plant response rating, Ducksalad ([2]; 250 g ai/ha): 0; Plant response rating, Sedge, Umbrella ([3]; 250 g ai/ha): 75; Plant response rating, Foxtail, Giant ([9]; Postemergence, 125 g ai/ha): 50; Plant response rating, Foxtail, Giant ([9]; Postemergence, 500 g ai/ha): 90; Plant response rating, Foxtail, Giant ([9]; Preemergence, 125 g ai/ha): 80; Plant response rating, Foxtail, Giant ([9]; Preemergence, 500 g ai/ha): 90; Plant response rating, Corn (corn (Zea mays); Postemergence, 125 g ai/ha): 20; Plant response rating, Corn (corn (Zea mays); Postemergence, 500 g ai/ha): 40; Plant response rating, Corn (corn (Zea mays); Preemergence, 125 g ai/ha): 0; Plant response rating, Corn (corn (Zea mays); Preemergence, 500 g ai/ha): 0; Plant response rating, Wheat ([10]; Postemergence, 125 g ai/ha): 10; Plant response rating, Wheat ([10]; Postemergence, 500 g ai/ha): 20; Plant response rating, Wheat ([10]; Preemergence, 125 g ai/ha): 0; Plant response rating, Wheat ([10]; Preemergence, 500 g ai/ha): 0 |
| Cc1cc(=O)n(-c2ccccc2)nc1Oc1ccnc(C(F)(F)F)c1 [Compound 15] | 100 | 100 | 100 | 100 | 80 | 90 | 100 | 100 | 100 | 100 | 90 | 100 | 70 | 90 | 50 | 100 | 70 | 90 | 30 | 70 | Plant response rating, Rice (rice (Oryza sativa); 250 g ai/ha): 0; Plant response rating, Barnyardgrass ([1]; 250 g ai/ha): 0; Plant response rating, Ducksalad ([2]; 250 g ai/ha): 70; Plant response rating, Sedge, Umbrella ([3]; 250 g ai/ha): 70; Plant response rating, Foxtail, Giant ([9]; Postemergence, 125 g ai/ha): 70; Plant response rating, Foxtail, Giant ([9]; Postemergence, 500 g ai/ha): 90; Plant response rating, Foxtail, Giant ([9]; Preemergence, 125 g ai/ha): 100; Plant response rating, Foxtail, Giant ([9]; Preemergence, 500 g ai/ha): 100; Plant response rating, Corn (corn (Zea mays); Postemergence, 125 g ai/ha): 40; Plant response rating, Corn (corn (Zea mays); Postemergence, 500 g ai/ha): 80; Plant response rating, Corn (corn (Zea mays); Preemergence, 125 g ai/ha): 10; Plant response rating, Corn (corn (Zea mays); Preemergence, 500 g ai/ha): 20; Plant response rating, Wheat ([10]; Postemergence, 125 g ai/ha): 20; Plant response rating, Wheat ([10]; Postemergence, 500 g ai/ha): 60; Plant response rating, Wheat ([10]; Preemergence, 125 g ai/ha): 0; Plant response rating, Wheat ([10]; Preemergence, 500 g ai/ha): 20 |
| CN(C)c1cc(=O)n(-c2ccc(C(F)(F)F)cc2)nc1Cc1ccnc(C(F)(F)F)c1 [Compound 21] | 90 | 90 | 100 | 100 | 20 | 60 | 80 | 100 | 30 | 60 | 0 | 10 | 40 | 50 | 10 | 30 | 60 | 80 | 0 | 20 | Plant response rating, Rice (rice (Oryza sativa); 125 g ai/ha): 0; Plant response rating, Barnyardgrass ([1]; 125 g ai/ha): 0; Plant response rating, Ducksalad ([2]; 125 g ai/ha): 0; Plant response rating, Sedge, Umbrella ([3]; 125 g ai/ha): 90; Plant response rating, Foxtail, Giant ([9]; Postemergence, 125 g ai/ha): 30; Plant response rating, Foxtail, Giant ([9]; Postemergence, 500 g ai/ha): 50; Plant response rating, Foxtail, Giant ([9]; Preemergence, 125 g ai/ha): 30; Plant response rating, Foxtail, Giant ([9]; Preemergence, 500 g ai/ha): 70; Plant response rating, Corn (corn (Zea mays); Postemergence, 125 g ai/ha): 20; Plant response rating, Corn (corn (Zea mays); Postemergence, 500 g ai/ha): 40; Plant response rating, Corn (corn (Zea mays); Preemergence, 125 g ai/ha): 0; Plant response rating, Corn (corn (Zea mays); Preemergence, 500 g ai/ha): 0; Plant response rating, Wheat ([10]; Postemergence, 125 g ai/ha): 20; Plant response rating, Wheat ([10]; Postemergence, 500 g ai/ha): 30; Plant response rating, Wheat ([10]; Preemergence, 125 g ai/ha): 0; Plant response rating, Wheat ([10]; Preemergence, 500 g ai/ha): 10 |
| Cc1cc(Oc2ccnc(C(F)(F)F)c2)nn(-c2ccc(F)cc2)c1=O [Compound 13] | 90 | 100 | 80 | 90 | 50 | 90 | 100 | 100 | 50 | 60 | 20 | 80 | 10 | 60 | 0 | 60 | 60 | 70 | 10 | 50 | Plant response rating, Rice (rice (Oryza sativa); 250 g ai/ha): 0; Plant response rating, Barnyardgrass ([1]; 250 g ai/ha): 0; Plant response rating, Ducksalad ([2]; 250 g ai/ha): 30; Plant response rating, Sedge, Umbrella ([3]; 250 g ai/ha): 65; Plant response rating, Foxtail, Giant ([9]; Postemergence, 125 g ai/ha): 50; Plant response rating, Foxtail, Giant ([9]; Postemergence, 500 g ai/ha): 90; Plant response rating, Foxtail, Giant ([9]; Preemergence, 125 g ai/ha): 80; Plant response rating, Foxtail, Giant ([9]; Preemergence, 500 g ai/ha): 100; Plant response rating, Corn (corn (Zea mays); Postemergence, 125 g ai/ha): 20; Plant response rating, Corn (corn (Zea mays); Postemergence, 500 g ai/ha): 50; Plant response rating, Corn (corn (Zea mays); Preemergence, 125 g ai/ha): 0; Plant response rating, Corn (corn (Zea mays); Preemergence, 500 g ai/ha): 10; Plant response rating, Wheat ([10]; Postemergence, 125 g ai/ha): 0; Plant response rating, Wheat ([10]; Postemergence, 500 g ai/ha): 20; Plant response rating, Wheat ([10]; Preemergence, 125 g ai/ha): 0; Plant response rating, Wheat ([10]; Preemergence, 500 g ai/ha): 10 |
| CCOc1cc(=O)n(-c2ccc(C(F)(F)F)cc2)nc1Cc1ccnc(C(F)(F)F)c1 [Compound 18] | 90 | 100 | 100 | 100 | 60 | 80 | 100 | 100 | 30 | 70 | 30 | 30 | 30 | 40 | 60 | 90 | 30 | 80 | 40 | 40 | Plant response rating, Rice (rice (Oryza sativa); 125 g ai/ha): 0; Plant response rating, Barnyardgrass ([1]; 125 g ai/ha): 0; Plant response rating, Ducksalad ([2]; 125 g ai/ha): 0; Plant response rating, Sedge, Umbrella ([3]; 125 g ai/ha): 75; Plant response rating, Foxtail, Giant ([9]; Postemergence, 125 g ai/ha): 20; Plant response rating, Foxtail, Giant ([9]; Postemergence, 500 g ai/ha): 50; Plant response rating, Foxtail, Giant ([9]; Preemergence, 125 g ai/ha): 100; Plant response rating, Foxtail, Giant ([9]; Preemergence, 500 g ai/ha): 100; Plant response rating, Corn (corn (Zea mays); Postemergence, 125 g ai/ha): 20; Plant response rating, Corn (corn (Zea mays); Postemergence, 500 g ai/ha): 40; Plant response rating, Corn (corn (Zea mays); Preemergence, 125 g ai/ha): 10; Plant response rating, Corn (corn (Zea mays); Preemergence, 500 g ai/ha): 10; Plant response rating, Wheat ([10]; Postemergence, 125 g ai/ha): 10; Plant response rating, Wheat ([10]; Postemergence, 500 g ai/ha): 20; Plant response rating, Wheat ([10]; Preemergence, 125 g ai/ha): 0; Plant response rating, Wheat ([10]; Preemergence, 500 g ai/ha): 20 |
